According to publication PMC7108740, “Exploring the molecular structures that confer ligand selectivity for galanin type II and III receptors” (PLoS ONE, 2020):
Ends that are not written are not given here.

Tests used:
GALR3 = target: T1, GALR3 (Homo sapiens, UniProt O60755); experiment: SRE-luc luciferase assay, WT GALR3; assay type: cell-based; parameters: host or cells: HEK293 cells stably expressing Gqi; conditions: SRE-luc in HEK293 Gqi cells, ligand 6 h, mean ± SE, at least three independent experiments, SEM
T1 sequence (O60755 1-368): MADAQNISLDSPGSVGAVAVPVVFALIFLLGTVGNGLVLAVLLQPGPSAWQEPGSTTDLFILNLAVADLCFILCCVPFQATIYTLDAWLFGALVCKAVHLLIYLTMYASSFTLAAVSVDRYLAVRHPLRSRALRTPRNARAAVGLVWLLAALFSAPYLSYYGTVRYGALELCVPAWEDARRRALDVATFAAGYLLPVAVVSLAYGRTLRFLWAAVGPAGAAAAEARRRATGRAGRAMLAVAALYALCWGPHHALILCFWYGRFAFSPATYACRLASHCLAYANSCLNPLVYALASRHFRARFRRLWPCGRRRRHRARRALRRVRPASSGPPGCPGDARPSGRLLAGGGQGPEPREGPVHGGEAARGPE
Text: (§1) The pcDNA3.1 vector was purchased from Invitrogen (San Diego, CA, USA). The serum response element (SRE)-luciferase (SRE-luc) vector containing a single copy of the SRE (CCATATTAGG) conjugated with luciferase was purchased from Stratagene (La Jolla, CA, USA). The cDNAs for human GALR1, GALR2, and GALR3 were obtained from BRN SCIENCE, Inc. The cDNAs were inserted into the EcoRⅠ and XhoⅠ sites of pcDNA3.1.
(§2) HEK293 cells stably expressing the Gqi construct, which allows induction of Gq-dependent signaling pathways upon activation of a Gi-coupled receptor [14, 30], were maintained in Dulbecco's Modified Eagle's Medium (DMEM) in the presence of 10% fetal bovine serum and 1% penicillin and streptomycin. For all transfections, 200 ng DNA (100 ng receptor and 100 ng SRE-luc) mixed with lipofectamine 2000 was applied to 60–80% confluent cells on a multi-well plate according to the manufacturer's instructions (Invitrogen, Carlsbad, CA).
(§3) For luciferase assays, HEK293 Gqi cells were seeded on 48-well plates at a density of 2.5 × 10^4 cells/well one day before transfection. A mixture including 100 ng SRE-luc reporter construct, 100 ng expression plasmid, and lipofectamine 2000 reagent in diluted Opti-MEM (Gibco) was incubated at room temperature for 20 min and then added into each well according to the manufacturer's instructions (Invitrogen, CA, USA). Before exposure to the ligands, the cells were maintained in serum-free DMEM for 16–18 h. Approximately 48 h after transfection, the cells were treated with ligand for 6 h. The cells were then lysed by the addition of 100 μl lysis buffer. The luciferase activity in 50 μl cell extract was determined using a luciferase assay system according to the standard protocol for the Synergy 2 Multi-Mode Microplate Reader (BioTek, Winooski, VT, USA).
(§4) Data analysis was performed by non-linear regression with a sigmoidal dose-response curve. The concentrations of agonists that induced half-maximal stimulation (EC50) were calculated using the GraphPad PRISM5 software (GraphPad software, Inc., San Diego, CA). All data are presented as the mean ± standard error (SE) of at least three independent experiments.

human GALR2 = target: T2, human GALR2 (Homo sapiens, UniProt O43603); experiment: SRE-luc luciferase assay, WT GALR2; assay type: cell-based; conditions: SRE-luc in HEK293 Gqi cells, ligand 6 h, mean ± SE, at least three independent experiments, SEM
T2 construct: host or cells: HEK293 cells stably expressing Gqi
T2 sequence (O43603 1-387): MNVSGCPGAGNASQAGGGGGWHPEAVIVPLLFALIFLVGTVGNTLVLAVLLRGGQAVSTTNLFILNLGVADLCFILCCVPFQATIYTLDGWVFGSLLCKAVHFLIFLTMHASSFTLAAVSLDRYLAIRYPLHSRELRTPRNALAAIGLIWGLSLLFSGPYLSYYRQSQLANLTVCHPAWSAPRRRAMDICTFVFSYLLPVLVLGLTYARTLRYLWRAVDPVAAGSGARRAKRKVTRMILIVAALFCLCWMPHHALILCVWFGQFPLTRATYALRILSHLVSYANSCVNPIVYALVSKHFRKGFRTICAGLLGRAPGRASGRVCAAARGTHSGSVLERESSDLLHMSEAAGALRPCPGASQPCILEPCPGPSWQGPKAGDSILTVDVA
Text: as §1, §2, §3, §4

| Molecule | EC50 (GALR3) [nM] | EC50 (human GALR2) [nM] |
| --- | --- | --- |
| CSCC[C@H](NC(=O)[C@H](C)NC(=O)[C@H](CCC(N)=O)NC(=O)[C@@H]1CCCN1C(=O)[C@@H](NC(=O)[C@H](Cc1c[nH]c2ccccc12)NC(=O)[C@@H](N)CC(N)=O)[C@@H](C)O)C(=O)N[C@@H](CC(C)C)C(=O)N[C@@H](Cc1ccc(O)cc1)C(=O)N[C@@H](CC(C)C)C(=O)N[C@@H](CCCCN)C(=O)NCC(=O)N[C@@H](C)C(=O)N[C@@H](CCC(N)=O)C(N)=O [SPX, reference compound] | 115 |  |
| NWTPQAALYLKGAQ-NH2 [A^7-SPX] |  | 40.7 ± 13.2 |
| NWTPQAMLYLKGPQ-NH2 [P^13-SPX] | 333 ± 55.7 | 33.1 ± 6.19 |
| NWTPNAMLYLKGAQ-NH2 [N^5-SPX] | 398 ± 96.1 | 87.7 ± 10.6 |
